Experimental data reported in article PMC9227830, “Neuroprotective Effect of Yucca schidigera Roezl ex Ortgies Bark Phenolic Fractions, Yuccaol B and Gloriosaol A on Scopolamine-Induced Memory Deficits in Zebrafish” (Molecules, 2022).

Target: T1, Glycine max (soybean) 15-lipoxygenase (15-LOX) (Glycine max, UniProt P08170)
T1 construct: gene LOX1.1; commercial native soybean enzyme (Sigma-Aldrich)
T1 sequence (P08170 1-839): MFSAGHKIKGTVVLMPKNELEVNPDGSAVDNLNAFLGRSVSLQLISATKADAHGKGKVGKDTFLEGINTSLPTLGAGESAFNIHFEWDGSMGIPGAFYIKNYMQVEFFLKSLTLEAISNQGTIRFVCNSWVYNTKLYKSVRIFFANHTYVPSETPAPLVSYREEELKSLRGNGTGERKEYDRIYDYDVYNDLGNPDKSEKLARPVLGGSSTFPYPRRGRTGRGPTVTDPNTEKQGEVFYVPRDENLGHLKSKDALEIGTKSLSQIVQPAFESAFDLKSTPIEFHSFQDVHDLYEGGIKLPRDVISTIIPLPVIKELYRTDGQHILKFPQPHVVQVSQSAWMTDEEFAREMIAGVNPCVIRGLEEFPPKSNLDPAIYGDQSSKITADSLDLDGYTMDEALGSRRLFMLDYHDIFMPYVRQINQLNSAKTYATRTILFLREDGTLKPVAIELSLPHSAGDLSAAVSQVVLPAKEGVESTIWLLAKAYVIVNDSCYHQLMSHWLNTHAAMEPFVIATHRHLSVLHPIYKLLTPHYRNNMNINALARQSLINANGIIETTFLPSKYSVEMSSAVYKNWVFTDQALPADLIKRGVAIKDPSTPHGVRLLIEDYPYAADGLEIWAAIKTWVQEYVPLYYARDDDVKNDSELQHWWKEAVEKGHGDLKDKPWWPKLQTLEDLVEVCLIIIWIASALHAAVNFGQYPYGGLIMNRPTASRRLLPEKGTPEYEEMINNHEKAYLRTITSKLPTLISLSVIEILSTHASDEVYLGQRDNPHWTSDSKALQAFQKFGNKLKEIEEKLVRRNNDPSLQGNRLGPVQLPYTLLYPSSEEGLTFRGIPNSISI
Assay: UV spectrophotometry at […] nm, linoleic acid oxidation (modified Malterud)
Assay type: biochemical
Conditions: read-out: EC50 (the source's name) (converted)

IC50 | SMILES
15.2 µM | COc1c(O)cc(/C=C/c2cc(O)cc3c2[C@]2(C(=O)O3)c3c(O)cc(O)cc3O[C@H]2c2ccc(O)cc2)c2c1OC(=O)[C@]21c2c(O)cc(O)cc2O[C@H]1c1ccc(O)cc1 [GloA, gloriosaol A]
122 µM | O=C1O[C@H]([C@@H](O)CO)C(O)=C1O [vitamin C, reference compound]
19.5 µM | O=C1Oc2cc(O)cc(/C=C/c3ccc(O)cc3)c2[C@@]12c1c(O)cc(O)cc1O[C@H]2c1ccc(O)cc1 [YuB, yuccaol B]
